Data published in ChEMBL document CHEMBL1687921, “Natural product-based phenols as novel probes for mycobacterial and fungal carbonic anhydrases” (J Med Chem, 2011).

Key:
[1] = molecular target: T1, PROBABLE TRANSMEMBRANE CARBONIC ANHYDRASE (CARBONATE DEHYDRATASE) (CARBONIC DEHYDRATASE) (Mycobacterium tuberculosis, UniProt P96878)
T1 sequence (P96878 whole entry): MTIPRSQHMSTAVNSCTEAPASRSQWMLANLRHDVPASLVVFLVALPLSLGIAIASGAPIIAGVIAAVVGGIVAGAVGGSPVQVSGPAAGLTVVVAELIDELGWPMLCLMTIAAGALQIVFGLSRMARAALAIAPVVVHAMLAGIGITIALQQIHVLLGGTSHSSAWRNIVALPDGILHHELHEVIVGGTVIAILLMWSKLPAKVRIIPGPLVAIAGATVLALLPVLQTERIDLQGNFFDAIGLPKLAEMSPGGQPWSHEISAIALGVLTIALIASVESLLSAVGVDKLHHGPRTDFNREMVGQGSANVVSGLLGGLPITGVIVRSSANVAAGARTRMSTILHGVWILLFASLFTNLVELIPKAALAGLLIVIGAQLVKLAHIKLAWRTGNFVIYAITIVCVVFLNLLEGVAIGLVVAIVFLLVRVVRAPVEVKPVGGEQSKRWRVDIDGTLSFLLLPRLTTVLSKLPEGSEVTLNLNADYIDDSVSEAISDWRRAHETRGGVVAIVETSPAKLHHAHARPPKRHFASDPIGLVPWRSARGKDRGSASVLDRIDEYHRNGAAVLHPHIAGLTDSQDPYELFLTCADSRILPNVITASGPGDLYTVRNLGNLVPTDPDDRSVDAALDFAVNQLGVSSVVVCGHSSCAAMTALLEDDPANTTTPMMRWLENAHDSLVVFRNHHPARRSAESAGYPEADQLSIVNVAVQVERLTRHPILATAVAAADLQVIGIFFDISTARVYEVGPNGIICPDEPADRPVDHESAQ
Description: Inhibition of Mycobacterium tuberculosis recombinant Rv3273 beta-carbonic anhydrase after 15 mins by stopped flow CO2 hydration assay

[2] = molecular target: T2, Beta-carbonic anhydrase 1 (Mycobacterium tuberculosis, UniProt P9WPJ7)
T2 sequence (P9WPJ7 whole entry): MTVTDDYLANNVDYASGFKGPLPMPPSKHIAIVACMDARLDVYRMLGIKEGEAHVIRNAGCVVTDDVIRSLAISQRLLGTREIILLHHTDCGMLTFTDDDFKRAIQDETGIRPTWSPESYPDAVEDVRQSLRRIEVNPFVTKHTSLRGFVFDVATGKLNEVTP
Description: Inhibition of Mycobacterium tuberculosis recombinant Rv1284 beta-carbonic anhydrase after 15 mins by stopped flow CO2 hydration assay

[3] = molecular target: Carbonic anhydrase 2 (Homo sapiens, UniProt P00918)
Description: Inhibition of human recombinant alpha-carbonic anhydrase 2 after 15 mins by stopped flow CO2 hydration assay

[4] = molecular target: T3, Carbonic anhydrase 2 (Cryptococcus neoformans, UniProt Q3I4V7)
T3 sequence (Q3I4V7 whole entry): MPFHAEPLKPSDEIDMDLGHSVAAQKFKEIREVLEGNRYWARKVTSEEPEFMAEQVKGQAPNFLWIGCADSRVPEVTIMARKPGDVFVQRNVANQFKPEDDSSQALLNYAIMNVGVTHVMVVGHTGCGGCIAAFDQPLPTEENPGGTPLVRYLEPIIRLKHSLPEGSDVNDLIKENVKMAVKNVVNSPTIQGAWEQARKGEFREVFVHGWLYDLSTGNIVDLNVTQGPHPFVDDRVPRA
Description: Inhibition of Cryptococcus neoformans recombinant Can2 beta-carbonic anhydrase after 15 mins by stopped flow CO2 hydration assay

[5] = molecular target: T4, Carbonic anhydrase (Candida albicans (strain SC5314 / ATCC MYA-2876) (Yeast), UniProt Q5AJ71)
T4 sequence (Q5AJ71 whole entry): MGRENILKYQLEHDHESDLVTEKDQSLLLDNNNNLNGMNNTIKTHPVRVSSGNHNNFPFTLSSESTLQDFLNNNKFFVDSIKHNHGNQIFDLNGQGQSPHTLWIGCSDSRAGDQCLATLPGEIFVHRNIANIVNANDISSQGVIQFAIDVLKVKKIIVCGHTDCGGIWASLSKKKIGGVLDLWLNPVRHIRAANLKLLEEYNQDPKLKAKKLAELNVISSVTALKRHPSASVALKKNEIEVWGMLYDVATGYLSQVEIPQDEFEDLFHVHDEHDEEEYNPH
Description: Inhibition of Candida albicans recombinant Nce103 beta-carbonic anhydrase after 15 mins by stopped flow CO2 hydration assay

[6] = molecular target: Carbonic anhydrase 1 (Homo sapiens, UniProt P00915)
Chain of Carbonic anhydrase 1 (P00915 whole entry): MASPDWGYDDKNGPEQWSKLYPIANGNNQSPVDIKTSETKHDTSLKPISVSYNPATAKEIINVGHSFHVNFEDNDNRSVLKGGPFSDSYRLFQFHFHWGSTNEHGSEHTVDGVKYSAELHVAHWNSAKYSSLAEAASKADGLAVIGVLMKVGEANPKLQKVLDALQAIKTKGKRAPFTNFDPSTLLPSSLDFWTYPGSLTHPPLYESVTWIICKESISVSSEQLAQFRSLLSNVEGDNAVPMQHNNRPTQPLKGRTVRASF
Description: Inhibition of human recombinant alpha-carbonic anhydrase 1 after 15 mins by stopped flow CO2 hydration assay

[7] = molecular target: T5, Beta-carbonic anhydrase 1 (Mycobacterium tuberculosis) (UniProt P9WPJ7)
T5 sequence (whole entry): T2 sequence (P9WPJ7 whole entry)

Structure (SMILES) | Ki [1] | Ki [2] | Ki [3] | Ki [4] | Ki [5] | Ki [6] | fold change (FC) [7]
COc1cc([C@@H]2[C@@H](C)[C@@H](C)[C@@H]2c2ccc(O)c(OC)c2)ccc1O [ENDIANDRIN B] | 890 nM | 800 nM | 12100 nM | 950 nM | 700 nM | 354000 nM | 
NS(=O)(=O)c1ccc(CCNC(=O)Cc2ccc(O)c(Cl)c2)cc1 | 850 nM | 1160 nM |  | 740 nM | 790 nM |  | 
COc1ccc(CCNC(=O)Cc2ccc(O)c(Cl)c2)cc1OC | 900 nM | 1780 nM |  | 860 nM | 750 nM |  | 
COCCNC(=O)Cc1ccc(O)c(Cl)c1 | 1140 nM | 11000 nM | 10400 nM | 950 nM | 990 nM | 158000 nM | 
O=C(Cc1ccc(O)c(Cl)c1)NCCc1ccccc1 | 970 nM | 800 nM | 9800 nM | 810 nM | 930 nM | 9600 nM | 
OCCc1ccc(O)cc1 [TYROSOL] | 12100 nM | 850 nM | 8700 nM | 1080 nM | 1100 nM | 430000 nM | 75
NC1=N/C(=C\c2ccc(O)c(O)c2)C(=O)N1 [POLYANDROCARPAMINE B] | 920 nM | 910 nM |  | 950 nM | 900 nM |  | 
Oc1ccccc1 [PHENOL] | 79000 nM | 64000 nM |  | 25900 nM | 17300 nM |  | 
COc1cc(CO)cc2oc3ccc(O)c(C(=O)O)c3c(=O)c12 | 10900 nM | 990 nM |  | 1080 nM | 1010 nM |  | 
COc1cc([C@@H]2[C@@H](C)[C@H](C)[C@H]2c2ccc(O)c(OC)c2)ccc1O [ENDIANDRIN A] | 8920 nM | 820 nM | 11700 nM | 770 nM | 730 nM | 368000 nM | 
NC(=O)Cc1ccc(O)cc1 | 9120 nM | 850 nM |  | 840 nM | 910 nM |  | 
COc1cccc(CCNC(=O)Cc2ccc(O)c(Cl)c2)c1 | 910 nM | 1270 nM |  | 940 nM | 720 nM |  | 
COc1cc(C)cc2oc3ccc(O)c(C(=O)O)c3c(=O)c12 | 11400 nM | 10500 nM |  | 1120 nM | 1060 nM |  | 
CC(C)(C)NC(=O)Cc1ccc(O)c(Cl)c1 | 10200 nM | 12300 nM |  | 910 nM | 960 nM |  | 
COc1cc(/C=C2\N=C(N)NC2=O)ccc1O [POLYANDROCARPAMINE A] | 910 nM | 11800 nM | 9600 nM | 890 nM | 920 nM | 10500 nM | 
NC(=O)Cc1ccc(O)c(Cl)c1 | 11200 nM | 10500 nM |  | 850 nM | 1000 nM |  | 
O=C(O)Cc1ccc(O)c(Cl)c1 | 10800 nM | 10300 nM |  | 1120 nM | 1080 nM |  | 
COC(=O)/C=C/C(=O)N[C@@H](Cc1ccc(O)c(Cl)c1)C(=O)O [(+)-XYLARIAMIDE A] | 10900 nM | 710 nM |  | 1110 nM | 1060 nM |  | 
CCCCNC(=O)Cc1ccc(O)c(Cl)c1 | 10400 nM | 11600 nM | 9400 nM | 730 nM | 810 nM | 10700 nM | 
O=C(Cc1ccc(O)c(Cl)c1)NCc1ccccc1 | 980 nM | 12200 nM | 11400 nM | 720 nM | 780 nM | 10500 nM | 
COc1cc(C[C@@H](C)[C@H](C)Cc2ccc(O)c(OC)c2)ccc1O [(-)-DIHYDROGUAIARETICACID] | 9100 nM | 850 nM | 230000 nM | 810 nM | 620 nM | 307000 nM | 
O=C(O)Cc1ccc(O)cc1 | 11400 nM | 10800 nM | 10300 nM | 900 nM | 1020 nM | 309000 nM | 
NS(=O)(=O)Cc1noc2ccccc12 [ZONISAMIDE] |  | 287000 nM |  |  |  |  | 
CC1(C)O[C@@H]2[C@@H](CO[C@@]3(COS(N)(=O)=O)OC(C)(C)O[C@@H]23)O1 [TOPIRAMATE] | 3020 nM |  |  |  |  |  | 
Nc1ccc(S(N)(=O)=O)cc1 [SULFANILAMIDE] | 7110 nM |  |  |  |  |  | 
COC(=O)/C=C/C(=O)N[C@H](Cc1ccc(O)c(Cl)c1)C(=O)O [(-)-XYLARIAMIDE A] | 11300 nM | 840 nM |  | 1150 nM | 1030 nM |  | 
